Patent publication US20040072824A1, “Methods and compositions for the treatment of cancer” (priority 2001, published 2004)
Read-outs that look alike come from different tables or passages of the source.

What was measured:
[1] = test system: blastic cells from AML patients; assay: Inhibition of viability of fresh leukemic cells (trypan blue exclusion); format: cell-based, human; conditions: Homo sapiens, day 3; for cytotoxicity at 10 µM: 10^-5 M; for cytotoxicity at 1 µM: 10^-6 M
Description: Samples for AML 1 through 5, AML 1 being the least and AML 5 being the most differentiated, were obtained. […] Cells were incubated with or without […] anti-histamine derivatives. Polaramine was included as a negative control. Cell counts were assessed by trypan blue exclusion test at day 3 after the incubation. Morphological analysis was performed using Wright-Giemsa staining on cytocentrifuge preparations. The results were expressed as % inhibition of growth as compared to negative control.

[2] = test system: MDA-MB-231 (breast cancer line); assay: Curative effects on palpable tumors, MDA-MB-231 cells in scid/scid mice; format: in vivo; conditions: for tumor growth: daily once tumors palpable, at least at the higher concentration tested; for death of test animals: higher dosage
Description: In this series of experiments, effects of various compounds of the present invention on tumor development were tested using two protocols. The first protocol is directed to the testing of curative effects of these compounds in different cell lines. In this protocol, cancerous cells are inoculated to the animals, and the inoculated animals were left without any further treatment until the development of tumors. As soon as the tumors became palable (4 mm^3), the compounds of this invention were administered daily to the animals.

[3] = test system: K562, U937, MDA-DB231, BT20 and MCF7 cell lines; assay: Cytotoxic effects in multi-well plate, 6 days, ATP level (CellTiter-Glo); conditions: 2x10^-9 M to 2x10^-4 M
Description: In order to test the cytotoxic effects of various compounds, a test was developed in a multi-well plate. Two leukemic cell lines, namely K562 and U937, and three breast cancer cell lines, namely MDA-DB231, BT20 and MCF7 were used for this test.
The cells were seeded at low density and were left for 24 hours to recover and reach a new logarithmic phase of growth. Various concentrations of the compounds being tested, ranging from 2×10^−9 M to 2×10^−4 M, were added in triplicate. The mixture was incubated for 6 days, during which approximately 4 doublings of the cell population occurred, to allow the cells to reach subconfluence.
The viability of the cultured cells after the treatment by the compounds was determined by quantifying the level of ATP since the level of ATP is directly proportional to the number of viable cells present in the culture. The ATP level was quantified by using CellTiter-Glo™ (Promega) luminescent test for cell viability.

U937 = format: in vivo; conditions: for toxicity for the animals: mouse, in vivo; for tumor growth compared to the negative control: treatment from day 1, cells inoculated after more than 24 hours, daily administration
Description: The second protocol was designed to test the preventive effects of the compounds of this invention on tumorigenesis. In this protocol, the animals have been treated with various compounds of the present invention on day 1. After more than 24 hours, tumoral cells were inoculated. The administration of the compounds of this invention was maintained daily. The cell line used for this test was U937.

U937 cells = assay: Antineoplastic activity, U937 cells injected in scid/scid mice, treatment from day 1; format: in vivo; conditions: 100 mg/kg; six mice
Description: Ten million U937 cells were subcutaneously injected into scid/scid mice. One injection was carried out per each of the 6 mice tested per set. The excipient or the compounds tested were administered intraperitoneally on day 1, i.e., the day of U937 cell line inoculation, of the experiment. The excipients or compounds were administered once daily. The tumor sizes were measured on day 5, day 8, day 12, day 14 and day 19 after the injection.

[4] = 72 h, MEAN over AML patients, read-out: In Vitro Percent Inhibition of Viability, MEAN
[5] = 72 h, patient ID 3, FAB AML2, read-out: In Vitro Percent Inhibition of Viability
[6] = 72 h, patient ID 4, FAB AML2, read-out: In Vitro Percent Inhibition of Viability
[7] = 72 h, patient ID 5, FAB AML2, read-out: In Vitro Percent Inhibition of Viability
[8] = 72 h, patient ID 10, FAB AML4, read-out: In Vitro Percent Inhibition of Viability
[9] = 72 h, patient ID 11, FAB AML5, read-out: In Vitro Percent Inhibition of Viability
[10] = 72 h, patient ID 12, FAB AML5, read-out: In Vitro Percent Inhibition of Viability
[11] = 72 h, patient ID 13, FAB AML5, read-out: In Vitro Percent Inhibition of Viability
[12] = 72 h, patient ID 14, FAB AML5, read-out: In Vitro Percent Inhibition of Viability
[13] = 72 h, patient ID 15, FAB AML5, read-out: In Vitro Percent Inhibition of Viability
[14] = AML1, 72 h, patient ID 1, FAB AML1, read-out: In Vitro Percent Inhibition of Viability
[15] = AML1, 72 h, patient ID 2, FAB AML1, read-out: In Vitro Percent Inhibition of Viability
[16] = AML3, 72 h, patient ID 6, FAB AML3, read-out: In Vitro Percent Inhibition of Viability
[17] = AML3, 72 h, patient ID 7, FAB AML3, read-out: In Vitro Percent Inhibition of Viability
[18] = AML3, 72 h, patient ID 8, FAB AML3, read-out: In Vitro Percent Inhibition of Viability
[19] = AML3, 72 h, patient ID 9, FAB AML3, read-out: In Vitro Percent Inhibition of Viability

Compound	cytotoxicity at 10 µM [1, 4]	cytotoxicity at 1 µM [1, 4]	cytotoxicity at 10 µM [1, 5]	cytotoxicity at 1 µM [1, 5]	cytotoxicity at 10 µM [1, 6]	cytotoxicity at 1 µM [1, 6]	cytotoxicity at 10 µM [1, 7]	cytotoxicity at 1 µM [1, 7]	cytotoxicity at 10 µM [1, 8]	cytotoxicity at 1 µM [1, 8]	cytotoxicity at 10 µM [1, 9]	cytotoxicity at 1 µM [1, 9]	cytotoxicity at 10 µM [1, 10]	cytotoxicity at 10 µM [1, 11]	cytotoxicity at 1 µM [1, 11]	cytotoxicity at 10 µM [1, 12]	cytotoxicity at 1 µM [1, 12]	cytotoxicity at 10 µM [1, 13]	cytotoxicity at 1 µM [1, 13]	cytotoxicity at 10 µM [1, 14]	also measured
CN[C@H]1CC[C@@H](c2ccc(Cl)c(Cl)c2)c2ccccc21 [SQ42, sertraline]	61%	24%	83%	16%	84%	18%	26%	46%	53%	39%	68%	46%	73%	42%	11%	38%	25%	78%	0%	42%	cytotoxicity at 1 µM [1, 14]: 17%; cytotoxicity at 10 µM [1, 15]: 59%; cytotoxicity at 1 µM [1, 15]: 20%; cytotoxicity at 10 µM [1, 16]: 35%; cytotoxicity at 1 µM [1, 16]: 11%; cytotoxicity at 10 µM [1, 17]: 82%; cytotoxicity at 1 µM [1, 17]: 15%; cytotoxicity at 10 µM [1, 18]: 72%; cytotoxicity at 1 µM [1, 18]: 36%; cytotoxicity at 10 µM [1, 19]: 79%; cytotoxicity at 1 µM [1, 19]: 38%; tumor growth [2]: decreased tumor growth; death of test animals [2]: caused the death of certain test animals; cytotoxic effect group [3]: I; toxicity for the animals (U937): toxic for the animals; tumor growth compared to the negative control (U937): decrease in tumor growth
Fc1ccc([C@@H]2CCNC[C@H]2COc2ccc3c(c2)OCO3)cc1 [A37, Paroxetine]	55%	24%	67%	25%	62%	21%	43%	6%	50%	39%	32%	39%	76%	53%	53%	33%	35%	41%	9%	50%	cytotoxicity at 1 µM [1, 14]: 0%; cytotoxicity at 10 µM [1, 15]: 41%; cytotoxicity at 1 µM [1, 15]: 25%; cytotoxicity at 10 µM [1, 16]: 54%; cytotoxicity at 1 µM [1, 16]: 19%; cytotoxicity at 10 µM [1, 17]: 63%; cytotoxicity at 1 µM [1, 17]: 3%; cytotoxicity at 10 µM [1, 18]: 56%; cytotoxicity at 1 µM [1, 18]: 12%; cytotoxicity at 10 µM [1, 19]: 97%; cytotoxicity at 1 µM [1, 19]: 53%; tumor growth [2]: decreased tumor growth; death of test animals [2]: caused the death of certain test animals; cytotoxic effect group [3]: I; toxicity for the animals (U937): toxic for the animals; tumor growth compared to the negative control (U937): decrease in tumor growth
CC1=C(/C=C/C(C)=C/C=C/C(C)=C/C(=O)O)C(C)(C)CCC1 [ATRA, All Trans Retinoic Acid]	–	–	–	–	–	–	–	–	–	–	–	–	–	–	–	–	–	–	–	–	mice that developed a tumor (U937 cells): all six
OCCN1CCN(CCCN2c3ccccc3Sc3ccc(Cl)cc32)CC1 [S64, perphenazine]	36%	11%	31%	12%	27%	25%	26%	3%	42%	36%	57%	7%	54%	47%	0%	23%	18%	17%	8%	17%	cytotoxicity at 1 µM [1, 14]: 8%; cytotoxicity at 10 µM [1, 15]: 32%; cytotoxicity at 1 µM [1, 15]: 0%; cytotoxicity at 10 µM [1, 16]: 35%; cytotoxicity at 1 µM [1, 16]: 24%; cytotoxicity at 10 µM [1, 17]: 45%; cytotoxicity at 1 µM [1, 17]: 0%; cytotoxicity at 10 µM [1, 18]: 50%; cytotoxicity at 1 µM [1, 18]: 18%; cytotoxicity at 10 µM [1, 19]: 35%; cytotoxicity at 1 µM [1, 19]: 0%; tumor volume ([2]; 2.5 mg/kg daily once tumors palpable): regression of the tumor volume; cytotoxic effect group [3]: I
